Test results from PubChem BioAssay (NCI).
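Compound exposure: 48 hours, 5 concentrations, 96-well plates. GI50 is the concentration that inhibits growth by half. TGI: total growth inhibition.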

Columns and labels:
Test in all cases: NCI tumour cell line growth inhibition, 48 h
EKVX NSCLC = system: EKVX NSCLC
BT-549 breast = system: BT-549 breast
SR leukemia = system: SR leukemia
SW-620 colon = system: SW-620 colon
K-562 leukemia = system: K-562 leukemia
MDA-MB-231 breast = system: MDA-MB-231 breast
TK-10 renal = system: TK-10 renal
HCT-116 colon = system: HCT-116 colon
MALME-3M melanoma = system: MALME-3M melanoma
HL-60(TB) leukemia = system: HL-60(TB) leukemia

Row | SMILES | GI50 (EKVX NSCLC) | TGI (EKVX NSCLC) | GI50 (BT-549 breast) | TGI (BT-549 breast) | GI50 (SR leukemia) | TGI (SR leukemia) | GI50 (SW-620 colon) | TGI (SW-620 colon) | GI50 (K-562 leukemia) | TGI (K-562 leukemia) | GI50 (MDA-MB-231 breast) | TGI (MDA-MB-231 breast) | GI50 (TK-10 renal) | TGI (TK-10 renal) | GI50 (HCT-116 colon) | TGI (HCT-116 colon) | GI50 (MALME-3M melanoma) | TGI (MALME-3M melanoma) | GI50 (HL-60(TB) leukemia) | TGI (HL-60(TB) leukemia)
1 | C=CCc1c(O)c(C(=O)/C=C/c2ccccc2)c(OC)c2ccoc12 | 6.13 µM | 20.6 µM | 2.63 µM | 8.09 µM | 2.15 µM | 6.05 µM | 3.32 µM | 12.1 µM | 2.87 µM | 16.2 µM | 3.11 µM | 11.3 µM | 4.96 µM | 17.3 µM | 3.03 µM | 11.1 µM | 5.8 µM | 20.2 µM | – | –
2 | COc1ccc(OC)c(/C=C/c2nc(SCc3ccccc3)n(-c3ccc(Cl)cc3)n2)c1 | 9.89 µM | > 100 µM | 11.6 µM | 38.5 µM | 3.53 µM | > 100 µM | 5.05 µM | > 100 µM | 4.23 µM | > 100 µM | 30.9 µM | > 100 µM | 30.6 µM | > 100 µM | 4.04 µM | > 100 µM | – | – | 3.14 µM | 9.86 µM
3 | CN1CCN(Cc2cc(NC(=O)c3cccc(C#Cc4cccc5[nH]nc(N)c45)c3)cc(C(F)(F)F)c2)CC1 | 1.75 µM | 3.26 µM | 1.97 µM | 3.62 µM | – | – | 1.5 µM | 2.89 µM | – | – | 1.38 µM | 2.73 µM | 1.96 µM | 3.38 µM | – | – | 1.23 µM | 2.69 µM | 1.89 µM | 4.42 µM
4 | CCc1cccc(C)c1NC(=S)NC(=O)c1ccccc1C(=O)NC(=S)Nc1c(C)cccc1CC | – | > 100 µM | – | – | – | > 100 µM | – | > 100 µM | – | > 100 µM | – | – | – | > 100 µM | – | > 100 µM | – | > 100 µM | – | > 100 µM
5 | CCN=C(C#N)NCC | – | > 100 µM | – | – | – | > 100 µM | – | 37.5 µM | – | > 100 µM | – | – | – | > 100 µM | – | > 100 µM | – | > 100 µM | – | > 100 µM
6 | Fc1ccc(Nc2nc3ccccc3c3occc23)cc1 | 15.2 µM | 29.5 µM | 15.6 µM | 28.9 µM | 2.24 µM | 16.4 µM | 17 µM | 30.7 µM | 3.66 µM | > 100 µM | 1.07 µM | 19.9 µM | 2.06 µM | 6.67 µM | 0.13 µM | 2.41 µM | – | – | 10.8 µM | 36.8 µM
7 | O=C1C2C3C=CC(C2C(=O)N1CN1CCSCC1)C1C2C(=O)N(CN4CCSCC4)C(=O)C2C31 (centres undefined) | – | > 100 µM | – | – | – | > 100 µM | 50.5 µM | > 68.1 µM | – | > 100 µM | – | – | – | > 100 µM | – | > 55.9 µM | – | > 100 µM | – | 73 µM
8 | COc1ccc(CCc2cc(OC)c(O)c(OC)c2)cc1 | – | > 100 µM | – | – | – | > 100 µM | – | > 100 µM | – | > 100 µM | – | – | – | – | – | > 100 µM | – | > 100 µM | – | –
9 | COc1ccc(/C=C2\c3cc(OC)c(OC)c(OC)c3CC[C@@H]2O)cc1F | 0.823 µM | > 100 µM | 0.443 µM | 42.7 µM | 0.0899 µM | > 100 µM | 0.246 µM | > 100 µM | 0.0865 µM | > 100 µM | 0.958 µM | > 100 µM | – | – | 0.331 µM | > 100 µM | 0.261 µM | > 100 µM | – | –
10 | Cc1cc(Cl)ccc1NC(=O)C(=O)C(C(=O)c1ccccc1)C1OC(=O)c2ccccc21 (centres undefined) | – | > 100 µM | – | – | – | > 100 µM | – | > 100 µM | – | > 100 µM | – | – | – | > 100 µM | – | > 100 µM | – | > 100 µM | – | > 100 µM
11 | c1ccc2c(NCCCCCCNc3cccc4ccccc34)cccc2c1 | – | > 100 µM | – | – | – | – | – | > 100 µM | – | > 100 µM | – | – | – | > 100 µM | – | > 100 µM | – | > 100 µM | – | > 100 µM
12 | Cc1cc(=O)oc2cc(OC/C=C3\CCC(=O)O3)ccc12 | 21 µM | 54.4 µM | 15.8 µM | 40 µM | – | – | 5.56 µM | 28 µM | – | 7.84 µM | 16.9 µM | 34.7 µM | 12.2 µM | 27.2 µM | 8.38 µM | 24.6 µM | 13.6 µM | 33 µM | 4.47 µM | 32.2 µM
13 | COCCn1cc(-c2csc(-c3c[nH]c4ccc(Br)cc34)n2)c2cccnc21 | 2.05 µM | > 100 µM | 4.8 µM | 27 µM | 3.25 µM | > 100 µM | 3.3 µM | > 100 µM | 3.6 µM | > 100 µM | 2.65 µM | > 100 µM | – | – | 3.84 µM | > 100 µM | 3.66 µM | 57.6 µM | – | –
14 | CC(=O)O[C@H]1CC2C=CC3C(CCC31)O2 (some centres undefined) | – | > 100 µM | – | – | – | – | – | > 100 µM | – | > 100 µM | – | – | – | > 100 µM | – | – | – | > 100 µM | – | > 100 µM
15 | CCOC(=O)c1cccnc1C(OC(C)=O)OC(C)=O | – | > 100 µM | – | – | – | > 100 µM | – | > 100 µM | – | > 100 µM | – | – | – | > 100 µM | – | > 100 µM | – | > 100 µM | – | > 100 µM
16 | CCOC1CC2OC(=O)C1C=C2C(=O)OC (centres undefined) | – | > 100 µM | – | – | – | – | – | 61.1 µM | – | 83.3 µM | – | – | – | 84.1 µM | – | – | – | 38.5 µM | – | 46.8 µM
17 | [O-]c1c2c(nn1-c1ccc(Cl)cc1)c1ccccc1c[n+]2Cc1ccccc1 | – | > 100 µM | – | – | – | > 100 µM | – | > 100 µM | – | > 100 µM | – | – | – | > 100 µM | – | > 100 µM | – | > 100 µM | – | > 100 µM
18 | CCCCCCCC(=O)[O][Hg][CH2]C1COC([CH2][Hg][O]C(=O)CCCCCCC)CO1 (centres undefined) | 30.8 µM | 66.4 µM | 11.1 µM | 23.1 µM | – | – | 2.91 µM | 19.5 µM | 2.09 µM | > 100 µM | 20.7 µM | 50.8 µM | 19.6 µM | 33.7 µM | 2.29 µM | 8.26 µM | 3.24 µM | 11.6 µM | 2.77 µM | > 100 µM
